Source: patent US11207320B2, “Compositions and methods for cancer expressing PDE3A or SLFN12” (The Broad Institute, Inc., priority 2015, dated 2021)
Read-outs that look alike come from different tables or passages of the source.

Columns and labels:
[1] = system: HeLa cells; assay: DNMDP cytotoxicity after targeting PDE3A locus using CRISPR; type: cell-based; details: HeLa infected with Cas9 and sgRNAs against PDE3A
Procedure: FIG. 11A is a Western blot. HeLa cells were infected with Cas9 and indicated guide RNAs (sgRNA) against PDE3A. Western blots were probed for PDE3A at indicated time points. FIG. 11B is a bar graph showing percent rescue of HeLa cells that were infected with indicated sgRNAs for two weeks and treated with 1 μM of 6-(4-(diethylamino)-3-nitrophenyl)-5-methyl-4,5-dihydropyridazin-3(2H)-one (DNMDP) for 48 hours. Percent rescue was normalized to the Cas9-only control. FIG. 11C is a plot showing viability of cells infected with indicated sgRNAs and treated with various concentrations of 6-(4-(diethylamino)-3-nitrophenyl)-5-methyl-4,5-dihydropyridazin-3(2H)-one (DNMDP).
Based on the observations that DNMDP-sensitive cells expressed high levels of PDE3A, and that DNMDP competed with non-cytotoxic inhibitors for PDE3A binding, it was hypothesized that DNMDP mediated its cytotoxic phenotype through the interaction with PDE3A and that PDE3A abundance was a direct cellular determinant of DNMDP sensitivity. To validate this hypothesis, the effect of reducing levels of PDE3A on the response to DNMDP was tested. […] In an independent approach using an siRNA smart-pool containing four different siRNAs targeting PDE3A, PDE3A expression was reduced in HeLa cell line with a maximum efficiency of 70% between 24 and 72 hours after transfection. […]

[2] = target: T1, PDE4A1A (Homo sapiens, UniProt P27815); assay: Phosphodiesterase inhibition reactions (Caliper panel); type: biochemical; details: 100 nM
T1 construct: Caliper
Procedure: (§1) DNMDP concentration was 100 nM.

[3] = target: T2, PDE9A2 (Homo sapiens, UniProt O76083); assay: as above; type: biochemical; details: PDE9A2, 100 nM
T2 construct: Caliper
Procedure: as §1

[4] = target: T3, PDE3B (Homo sapiens, UniProt Q13370); assay: as above; type: biochemical; details: 100 nM
T3 construct: Caliper
Procedure: as §1

[5] = target: T4, PDE2A (Homo sapiens, UniProt O00408); assay: as above; type: biochemical; details: 100 nM
T4 construct: Caliper
Procedure: as §1

[6] = target: T5, PDE10A2 (Homo sapiens, UniProt Q9Y233); assay: as above; type: biochemical; details: PDE10A2, 100 nM
T5 construct: Caliper
Procedure: as §1

[7] = target: T6, PDE11A (Homo sapiens, UniProt Q9HCR9); assay: as above; type: biochemical; details: 100 nM
T6 construct: Caliper
Procedure: as §1

[8] = target: T7, PDE4D7 (Homo sapiens, UniProt Q08499); assay: as above; type: biochemical; details: PDE4D7, 100 nM
T7 construct: Caliper
Procedure: as §1

[9] = target: T8, PDE1B (Homo sapiens, UniProt Q01064); assay: as above; type: biochemical; details: 100 nM
T8 construct: Caliper
Procedure: as §1

[10] = target: T9, PDE4B1 (Homo sapiens, UniProt Q07343); assay: as above; type: biochemical; details: PDE4B1, 100 nM
T9 construct: Caliper
Procedure: as §1

[11] = system: PDE1A1; assay: as above; type: biochemical; details: PDE1A1, 100 nM
Procedure: as §1

[12] = target: PDE3A (Homo sapiens, UniProt Q14432); assay: as above; type: biochemical; details: 100 nM
Procedure: as §1

[13] = target: T10, PDE4C1 (Homo sapiens, UniProt Q08493); assay: as above; type: biochemical; details: PDE4C1, 100 nM
T10 construct: Caliper
Procedure: as §1

[14] = target: T11, PDE1C (Homo sapiens, UniProt Q14123); assay: as above; type: biochemical; details: 100 nM
T11 construct: Caliper
Procedure: as §1

[15] = target: T12, PDE7A (Homo sapiens, UniProt Q13946); assay: as above; type: biochemical; details: 100 nM
T12 construct: Caliper
Procedure: as §1

[16] = target: T13, PDE10A1 (Homo sapiens, UniProt Q9Y233); assay: as above; type: biochemical; details: PDE10A1, 100 nM
T13 construct: Caliper
Procedure: as §1

[17] = target: T14, PDE4D3 (Homo sapiens, UniProt Q08499); assay: as above; type: biochemical; details: PDE4D3, 100 nM
T14 construct: Caliper
Procedure: as §1

[18] = target: T15, PDE7B (Homo sapiens, UniProt Q9NP56); assay: as above; type: biochemical; details: 100 nM
T15 construct: Caliper
Procedure: as §1

[19] = system: PDE3; details: Ruppert et al., Life Sci. 31, 2037-2043, 1982; cited from earlier work
[20] = replicate #1, read-out: % inh. #1
[21] = replicate #2, read-out: % inh. #2

T4 sequence (O00408 whole entry, species assumed): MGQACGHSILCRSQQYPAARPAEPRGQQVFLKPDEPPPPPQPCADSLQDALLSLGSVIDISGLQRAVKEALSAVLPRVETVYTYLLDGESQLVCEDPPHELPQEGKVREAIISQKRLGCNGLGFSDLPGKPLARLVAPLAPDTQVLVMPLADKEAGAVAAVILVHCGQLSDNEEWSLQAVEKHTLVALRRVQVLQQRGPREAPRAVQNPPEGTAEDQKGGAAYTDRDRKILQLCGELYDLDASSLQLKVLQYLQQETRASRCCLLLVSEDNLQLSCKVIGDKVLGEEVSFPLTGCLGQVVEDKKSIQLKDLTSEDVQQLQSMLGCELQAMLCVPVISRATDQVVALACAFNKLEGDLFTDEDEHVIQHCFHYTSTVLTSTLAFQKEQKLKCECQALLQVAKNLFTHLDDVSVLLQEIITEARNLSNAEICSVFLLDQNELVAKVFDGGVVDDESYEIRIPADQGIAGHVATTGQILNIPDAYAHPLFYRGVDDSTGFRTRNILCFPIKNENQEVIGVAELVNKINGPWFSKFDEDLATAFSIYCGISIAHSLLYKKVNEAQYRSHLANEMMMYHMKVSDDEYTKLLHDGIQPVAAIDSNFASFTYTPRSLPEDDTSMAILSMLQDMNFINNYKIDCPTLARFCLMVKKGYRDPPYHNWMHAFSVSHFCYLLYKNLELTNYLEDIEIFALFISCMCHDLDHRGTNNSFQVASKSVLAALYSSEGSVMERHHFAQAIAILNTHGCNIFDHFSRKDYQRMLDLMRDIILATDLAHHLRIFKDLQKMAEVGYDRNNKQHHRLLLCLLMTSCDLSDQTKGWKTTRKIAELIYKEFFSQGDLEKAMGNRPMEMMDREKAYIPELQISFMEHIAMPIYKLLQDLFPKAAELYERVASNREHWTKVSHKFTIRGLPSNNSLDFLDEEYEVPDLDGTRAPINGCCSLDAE
T11 sequence (Q14123 whole entry, species assumed): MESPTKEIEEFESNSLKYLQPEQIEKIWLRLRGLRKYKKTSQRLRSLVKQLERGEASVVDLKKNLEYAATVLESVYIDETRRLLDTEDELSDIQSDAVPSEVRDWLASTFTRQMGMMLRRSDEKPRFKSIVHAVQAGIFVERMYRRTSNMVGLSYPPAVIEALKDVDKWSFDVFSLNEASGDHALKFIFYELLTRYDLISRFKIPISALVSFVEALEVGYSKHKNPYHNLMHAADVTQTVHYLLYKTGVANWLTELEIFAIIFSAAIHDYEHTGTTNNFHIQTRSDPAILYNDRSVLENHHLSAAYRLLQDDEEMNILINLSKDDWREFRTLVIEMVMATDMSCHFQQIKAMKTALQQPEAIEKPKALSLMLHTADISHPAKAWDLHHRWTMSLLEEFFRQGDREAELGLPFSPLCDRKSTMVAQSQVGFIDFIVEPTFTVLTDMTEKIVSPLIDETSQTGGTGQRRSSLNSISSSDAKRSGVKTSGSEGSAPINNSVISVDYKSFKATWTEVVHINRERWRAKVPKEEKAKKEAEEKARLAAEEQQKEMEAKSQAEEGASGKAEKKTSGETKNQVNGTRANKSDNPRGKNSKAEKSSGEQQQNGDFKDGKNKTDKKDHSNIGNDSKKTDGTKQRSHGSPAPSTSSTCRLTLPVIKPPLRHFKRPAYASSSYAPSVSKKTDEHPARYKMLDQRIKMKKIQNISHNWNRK
T12 sequence (Q13946 whole entry, species assumed): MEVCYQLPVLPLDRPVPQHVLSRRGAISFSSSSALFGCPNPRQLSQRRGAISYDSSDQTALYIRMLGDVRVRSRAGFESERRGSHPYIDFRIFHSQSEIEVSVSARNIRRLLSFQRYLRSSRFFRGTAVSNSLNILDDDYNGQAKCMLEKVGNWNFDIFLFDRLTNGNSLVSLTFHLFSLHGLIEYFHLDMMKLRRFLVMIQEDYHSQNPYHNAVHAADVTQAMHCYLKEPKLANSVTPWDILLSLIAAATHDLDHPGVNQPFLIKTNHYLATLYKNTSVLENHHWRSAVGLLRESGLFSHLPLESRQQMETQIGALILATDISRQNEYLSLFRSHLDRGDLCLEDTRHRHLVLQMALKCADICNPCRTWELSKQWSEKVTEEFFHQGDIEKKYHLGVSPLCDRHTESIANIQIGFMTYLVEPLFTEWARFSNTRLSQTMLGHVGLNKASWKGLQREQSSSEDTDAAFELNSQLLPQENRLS
T9 sequence (Q07343 whole entry, species assumed): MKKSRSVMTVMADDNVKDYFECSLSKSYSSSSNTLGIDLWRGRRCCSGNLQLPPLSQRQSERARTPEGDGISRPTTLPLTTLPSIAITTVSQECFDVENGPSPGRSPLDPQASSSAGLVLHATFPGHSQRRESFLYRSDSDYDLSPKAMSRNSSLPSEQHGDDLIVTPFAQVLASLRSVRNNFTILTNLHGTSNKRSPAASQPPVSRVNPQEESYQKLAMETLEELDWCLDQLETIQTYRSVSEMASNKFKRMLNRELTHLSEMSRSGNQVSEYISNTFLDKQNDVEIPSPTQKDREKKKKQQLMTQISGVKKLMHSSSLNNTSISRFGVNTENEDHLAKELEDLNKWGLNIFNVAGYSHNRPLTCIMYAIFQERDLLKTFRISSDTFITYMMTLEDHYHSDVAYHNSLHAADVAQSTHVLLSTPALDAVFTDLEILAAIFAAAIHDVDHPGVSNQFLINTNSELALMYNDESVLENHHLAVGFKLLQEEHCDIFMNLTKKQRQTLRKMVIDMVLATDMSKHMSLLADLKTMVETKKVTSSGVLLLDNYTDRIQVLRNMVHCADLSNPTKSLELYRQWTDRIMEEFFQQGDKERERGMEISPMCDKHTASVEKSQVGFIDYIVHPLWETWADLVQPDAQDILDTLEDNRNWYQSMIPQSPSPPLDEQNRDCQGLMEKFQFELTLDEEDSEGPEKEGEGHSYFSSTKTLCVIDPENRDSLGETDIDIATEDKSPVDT
T3 sequence (Q13370 whole entry, species assumed): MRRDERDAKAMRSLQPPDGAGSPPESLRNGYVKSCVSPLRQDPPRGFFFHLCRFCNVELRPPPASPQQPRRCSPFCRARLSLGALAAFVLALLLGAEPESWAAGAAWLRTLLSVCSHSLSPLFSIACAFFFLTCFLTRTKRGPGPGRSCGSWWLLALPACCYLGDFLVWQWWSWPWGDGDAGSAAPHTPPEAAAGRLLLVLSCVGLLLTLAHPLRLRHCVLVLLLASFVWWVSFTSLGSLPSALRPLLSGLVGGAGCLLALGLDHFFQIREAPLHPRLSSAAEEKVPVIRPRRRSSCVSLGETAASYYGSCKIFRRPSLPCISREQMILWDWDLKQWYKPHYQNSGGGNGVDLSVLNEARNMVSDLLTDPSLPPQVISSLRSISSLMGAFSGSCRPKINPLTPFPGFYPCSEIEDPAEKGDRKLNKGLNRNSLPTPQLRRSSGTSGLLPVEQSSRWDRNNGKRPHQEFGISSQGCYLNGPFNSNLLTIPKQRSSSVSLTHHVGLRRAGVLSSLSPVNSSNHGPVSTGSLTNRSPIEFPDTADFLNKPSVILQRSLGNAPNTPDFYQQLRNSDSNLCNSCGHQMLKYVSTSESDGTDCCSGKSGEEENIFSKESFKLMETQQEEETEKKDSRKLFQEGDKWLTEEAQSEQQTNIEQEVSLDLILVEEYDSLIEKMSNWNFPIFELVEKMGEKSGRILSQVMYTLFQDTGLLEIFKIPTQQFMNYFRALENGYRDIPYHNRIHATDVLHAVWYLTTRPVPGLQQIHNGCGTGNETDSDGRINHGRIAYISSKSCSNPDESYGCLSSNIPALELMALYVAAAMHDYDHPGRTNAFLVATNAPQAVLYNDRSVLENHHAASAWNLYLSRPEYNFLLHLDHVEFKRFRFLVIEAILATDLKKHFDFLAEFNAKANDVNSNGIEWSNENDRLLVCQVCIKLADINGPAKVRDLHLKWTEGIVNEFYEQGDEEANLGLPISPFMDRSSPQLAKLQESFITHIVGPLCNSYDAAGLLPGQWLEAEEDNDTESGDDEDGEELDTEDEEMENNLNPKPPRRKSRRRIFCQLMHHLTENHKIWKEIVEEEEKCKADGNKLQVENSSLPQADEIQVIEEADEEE
T6 sequence (Q9HCR9 whole entry, species assumed): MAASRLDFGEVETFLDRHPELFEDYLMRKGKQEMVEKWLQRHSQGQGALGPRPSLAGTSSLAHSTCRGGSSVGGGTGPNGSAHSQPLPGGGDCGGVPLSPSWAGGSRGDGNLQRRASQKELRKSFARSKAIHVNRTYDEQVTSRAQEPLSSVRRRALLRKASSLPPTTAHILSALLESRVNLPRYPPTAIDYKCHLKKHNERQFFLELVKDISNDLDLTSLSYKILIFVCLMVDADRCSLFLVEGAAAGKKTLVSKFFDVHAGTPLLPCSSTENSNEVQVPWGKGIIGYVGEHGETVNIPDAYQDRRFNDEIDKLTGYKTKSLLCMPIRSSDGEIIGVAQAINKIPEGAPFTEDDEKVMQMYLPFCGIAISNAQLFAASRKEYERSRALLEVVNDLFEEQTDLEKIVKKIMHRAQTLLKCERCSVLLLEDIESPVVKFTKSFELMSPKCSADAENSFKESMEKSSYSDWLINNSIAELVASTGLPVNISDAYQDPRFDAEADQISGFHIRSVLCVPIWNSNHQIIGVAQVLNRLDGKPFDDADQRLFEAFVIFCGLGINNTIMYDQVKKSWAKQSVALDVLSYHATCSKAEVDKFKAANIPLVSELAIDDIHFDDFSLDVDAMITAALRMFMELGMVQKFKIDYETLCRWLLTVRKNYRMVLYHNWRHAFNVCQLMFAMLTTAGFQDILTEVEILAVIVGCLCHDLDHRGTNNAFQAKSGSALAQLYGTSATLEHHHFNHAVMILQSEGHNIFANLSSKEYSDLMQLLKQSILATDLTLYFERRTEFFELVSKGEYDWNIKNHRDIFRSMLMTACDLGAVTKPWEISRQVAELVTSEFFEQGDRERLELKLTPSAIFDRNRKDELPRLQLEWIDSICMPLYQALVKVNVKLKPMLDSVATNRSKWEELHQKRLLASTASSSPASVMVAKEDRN

SMILES: CCN(CC)c1ccc(C2=NNC(=O)CC2C)cc1[N+](=O)[O-] (centres unmarked) [DNMDP, 6-(4-(diethylamino)-3-nitrophenyl)-5-methyl-4,5-dihydropyridazin-3(2H)-one]
- rescue of toxicity by PDE3A sgRNA2 and sgRNA3 [1]: significant rescue of toxicity
- inhibition at 0.1 µM ([2]; read-out: % inhibition): 16%
- inhibition at 0.1 µM [2, 20]: 14%
- inhibition at 0.1 µM [2, 21]: 18%
- inhibition at 0.1 µM [3, 20]: 0%
- inhibition at 0.1 µM [3, 21]: 5%
- inhibition at 0.1 µM ([3]; read-out: % inhibition): 2%
- inhibition at 0.1 µM ([4]; read-out: % inhibition): 97%
- inhibition at 0.1 µM [4, 20]: 98%
- inhibition at 0.1 µM [4, 21]: 97%
- inhibition at 0.1 µM ([5]; read-out: % inhibition): 8%
- inhibition at 0.1 µM [5, 20]: 6%
- inhibition at 0.1 µM [5, 21]: 10%
- inhibition at 0.1 µM [6, 20]: 67%
- inhibition at 0.1 µM [6, 21]: 70%
- inhibition at 0.1 µM ([6]; read-out: % inhibition): 68%
- inhibition at 0.1 µM ([7]; read-out: % inhibition): 16%
- inhibition at 0.1 µM [7, 20]: 14%
- inhibition at 0.1 µM [7, 21]: 18%
- inhibition at 0.1 µM [8, 20]: 19%
- inhibition at 0.1 µM [8, 21]: 20%
- inhibition at 0.1 µM ([8]; read-out: % inhibition): 20%
- inhibition at 0.1 µM ([9]; read-out: % inhibition): -2%
- inhibition at 0.1 µM [9, 20]: -5%
- inhibition at 0.1 µM [9, 21]: 0%
- inhibition at 0.1 µM [10, 20]: 21%
- inhibition at 0.1 µM [10, 21]: 20%
- inhibition at 0.1 µM ([10]; read-out: % inhibition): 21%
- % inhibition [11]: 5%
- % inh. #1 ([11]; replicate #1): 3%
- % inh. #2 ([11]; replicate #2): 7%
- inhibition at 0.1 µM ([12]; read-out: % inhibition): 95%
- inhibition at 0.1 µM [12, 20]: 95%
- inhibition at 0.1 µM [12, 21]: 95%
- inhibition at 0.1 µM [13, 20]: 10%
- inhibition at 0.1 µM [13, 21]: 14%
- inhibition at 0.1 µM ([13]; read-out: % inhibition): 12%
- inhibition at 0.1 µM ([14]; read-out: % inhibition): 5%
- inhibition at 0.1 µM [14, 20]: 2%
- inhibition at 0.1 µM [14, 21]: 9%
- inhibition at 0.1 µM ([15]; read-out: % inhibition): 22%
- inhibition at 0.1 µM [15, 20]: 24%
- inhibition at 0.1 µM [15, 21]: 20%
- inhibition at 0.1 µM [16, 20]: 61%
- inhibition at 0.1 µM [16, 21]: 65%
- inhibition at 0.1 µM ([16]; read-out: % inhibition): 63%
- inhibition at 0.1 µM [17, 20]: 14%
- inhibition at 0.1 µM [17, 21]: 16%
- inhibition at 0.1 µM ([17]; read-out: % inhibition): 15%
- inhibition at 0.1 µM ([18]; read-out: % inhibition): 8%
- inhibition at 0.1 µM [18, 20]: 5%
- inhibition at 0.1 µM [18, 21]: 11%

SMILES: COc1cc2c(cc1OC)-c1c/c(=N\c3c(C)cc(C)cc3C)n(C)c(=O)n1CC2 [trequinsin, 9,10-dimethoxy-3-methyl-2-(2,4,6-trimethylphenyl)imino-6,7-dihydropyrimido[6,1-a]isoquinolin-4-one]
- IC50 [19]: 0.25 nM
